{"source": "patent US7125868B2", "about": "“Thienothiazine compound having anti-inflammatory and analgesic properties and method of making and using the same” (priority 2001, dated 2006)", "key": {"[1]": {"tested_on": "Carrageenan Induced Rat Foot Swelling", "assay": "Carrageenan induced rat foot swelling", "format": "in vivo", "source_text": "Divide the rats randomly into five groups, with each group consisting of ten rats. […] Use carrageenan induced inflammation to cause rat plantar swelling."}, "[2]": {"tested_on": "Adjuvant Induced Rat Foot Swelling", "assay": "Adjuvant induced rat foot swelling (primary and secondary inflammation)", "format": "in vivo"}, "[3]": {"tested_on": "Dimethylbenzene Induced Mouse Ear Swelling", "assay": "Dimethylbenzene induced mouse ear swelling", "text": "Divide the mice randomly into five groups, with each team consisting of ten mice. […] Dimethylbenzene was used to induce ear swelling of the mice."}, "Rat Gastric Mucosa Ulcer": {"tested_on": "Rat Gastric Mucosa Ulcer", "assay": "Side effects of causing rat gastric mucosa ulcer", "settings": "four successive days"}, "[4]": {"tested_on": "Body Twist Reaction Induced by Acetic Acid", "assay": "Acetic acid induced body twist reaction (chemical stimuli induced pain)", "settings": "mouse"}}}
{"molecule": "Cc1cnc(NC(=O)C2=C(O)c3sc(Cl)cc3S(=O)(=O)N2C)s1", "note": "[Example 1, 6-chlorine-4-hydroxy-2-methyl-N-[2′-(5′-methyl)thiazolyl]-2H-thieno-[2,3-e]-1,2-thiazine-3-formamide-1,1-dioxide]", "values": [{"measurement": "Change in the Foot Volume after Giving the Carrageenan", "setting": "[1]; 1.0 mg/kg, five hours", "result": "0.83 ± 0.28"}, {"measurement": "Change in the Foot Volume after Giving the Carrageenan", "setting": "[1]; 1.0 mg/kg, four hours", "result": "0.76 ± 0.28"}, {"measurement": "Change in the Foot Volume after Giving the Carrageenan", "setting": "[1]; 1.0 mg/kg, one hour", "result": "0.25 ± 0.15"}, {"measurement": "Change in the Foot Volume after Giving the Carrageenan", "setting": "[1]; 1.0 mg/kg, six hours", "result": "0.83 ± 0.25"}, {"measurement": "Change in the Foot Volume after Giving the Carrageenan", "setting": "[1]; 1.0 mg/kg, three hours", "result": "0.66 ± 0.34"}, {"measurement": "Change in the Foot Volume after Giving the Carrageenan", "setting": "[1]; 1.0 mg/kg, two hours", "result": "0.56 ± 0.27"}, {"measurement": "Change in the Foot Volume after Giving the Carrageenan", "setting": "[1]; 2.0 mg/kg, five hours", "result": "0.79 ± 0.25"}, {"measurement": "Change in the Foot Volume after Giving the Carrageenan", "setting": "[1]; 2.0 mg/kg, four hours", "result": "0.70 ± 0.25"}, {"measurement": "Change in the Foot Volume after Giving the Carrageenan", "setting": "[1]; 2.0 mg/kg, one hour", "result": "0.24 ± 0.11"}, {"measurement": "Change in the Foot Volume after Giving the Carrageenan", "setting": "[1]; 2.0 mg/kg, six hours", "result": "0.80 ± 0.21"}, {"measurement": "Change in the Foot Volume after Giving the Carrageenan", "setting": "[1]; 2.0 mg/kg, three hours", "result": "0.63 ± 0.54"}, {"measurement": "Change in the Foot Volume after Giving the Carrageenan", "setting": "[1]; 2.0 mg/kg, two hours", "result": "0.39 ± 0.17"}, {"measurement": "Change in the Foot Volume after Giving the Carrageenan", "setting": "[1]; 4.0 mg/kg, five hours", "result": "0.60 ± 0.31"}, {"measurement": "Change in the Foot Volume after Giving the Carrageenan", "setting": "[1]; 4.0 mg/kg, four hours", "result": "0.59 ± 0.30"}, {"measurement": "Change in the Foot Volume after Giving the Carrageenan", "setting": "[1]; 4.0 mg/kg, one hour", "result": "0.29 ± 0.20"}, {"measurement": "Change in the Foot Volume after Giving the Carrageenan", "setting": "[1]; 4.0 mg/kg, six hours", "result": "0.64 ± 0.24"}, {"measurement": "Change in the Foot Volume after Giving the Carrageenan", "setting": "[1]; 4.0 mg/kg, three hours", "result": "0.50 ± 0.20"}, {"measurement": "Change in the Foot Volume after Giving the Carrageenan", "setting": "[1]; 4.0 mg/kg, two hours", "result": "0.37 ± 0.22"}, {"measurement": "effectiveness on carrageenan induced plantar swelling compared with Meloxicam", "setting": "[1]; 1, 2, 4 mg/kg vs Meloxicam 4 mg/kg", "result": "substantially more effective than the positive medicine Meloxicam"}, {"measurement": "Rate of the Change in the Volume of Left and Right Feet after Giving Adjuvant", "setting": "[2]; 1.0 mg/kg oral, 18 hours", "result": "0.77 ± 0.28"}, {"measurement": "Rate of the Change in the Volume of Left and Right Feet after Giving Adjuvant", "setting": "[2]; 1.0 mg/kg oral, 24 hours", "result": "0.75 ± 0.24"}, {"measurement": "Rate of the Change in the Volume of Left and Right Feet after Giving Adjuvant", "setting": "[2]; 1.0 mg/kg oral, 3 days", "result": "0.74 ± 0.28"}, {"measurement": "Rate of the Change in the Volume of Left and Right Feet after Giving Adjuvant", "setting": "[2]; 1.0 mg/kg oral, 8 days", "result": "0.75 ± 0.29"}, {"measurement": "Rate of the Change in the Volume of Left and Right Feet after Giving Adjuvant", "setting": "[2]; 1.0 mg/kg oral, 19 days", "result": "0.97 ± 0.19"}, {"measurement": "Rate of the Change in the Volume of Left and Right Feet after Giving Adjuvant", "setting": "[2]; 2.0 mg/kg oral, 18 hours", "result": "0.62 ± 0.10"}, {"measurement": "Rate of the Change in the Volume of Left and Right Feet after Giving Adjuvant", "setting": "[2]; 2.0 mg/kg oral, 24 hours", "result": "0.60 ± 0.10"}, {"measurement": "Rate of the Change in the Volume of Left and Right Feet after Giving Adjuvant", "setting": "[2]; 2.0 mg/kg oral, 3 days", "result": "0.61 ± 0.13"}, {"measurement": "Rate of the Change in the Volume of Left and Right Feet after Giving Adjuvant", "setting": "[2]; 2.0 mg/kg oral, 8 days", "result": "0.60 ± 0.14"}, {"measurement": "Rate of the Change in the Volume of Left and Right Feet after Giving Adjuvant", "setting": "[2]; 2.0 mg/kg oral, 19 days", "result": "0.69 ± 1.10"}, {"measurement": "Rate of the Change in the Volume of Left and Right Feet after Giving Adjuvant", "setting": "[2]; 4.0 mg/kg oral, 18 hours", "result": "0.65 ± 0.08"}, {"measurement": "Rate of the Change in the Volume of Left and Right Feet after Giving Adjuvant", "setting": "[2]; 4.0 mg/kg oral, 24 hours", "result": "0.65 ± 0.12"}, {"measurement": "Rate of the Change in the Volume of Left and Right Feet after Giving Adjuvant", "setting": "[2]; 4.0 mg/kg oral, 3 days", "result": "0.53 ± 0.13"}, {"measurement": "Rate of the Change in the Volume of Left and Right Feet after Giving Adjuvant", "setting": "[2]; 4.0 mg/kg oral, 8 days", "result": "0.63 ± 0.16"}, {"measurement": "Rate of the Change in the Volume of Left and Right Feet after Giving Adjuvant", "setting": "[2]; 4.0 mg/kg oral, 19 days", "result": "0.72 ± 1.12"}, {"measurement": "inhibition of the primary and secondary inflammation induced by adjuvant", "setting": "[2]; 1, 2, 4 mg/kg oral", "result": "dosage dependent inhibition"}, {"measurement": "Rate of Ear Swelling (x ± s)", "setting": "[3]; 2 mg/kg oral", "result": "0.56 ± 0.35"}, {"measurement": "inhibition rate (ear swelling)", "setting": "[3]; 2 mg/kg oral", "result": 56, "unit": "%"}, {"measurement": "Rate of Ear Swelling (x ± s)", "setting": "[3]; 4 mg/kg oral", "result": "0.67 ± 0.43"}, {"measurement": "inhibition rate (ear swelling)", "setting": "[3]; 4 mg/kg oral", "result": 67, "unit": "%"}, {"measurement": "Rate of Ear Swelling (x ± s)", "setting": "[3]; 8 mg/kg oral", "result": "0.81 ± 0.26"}, {"measurement": "inhibition rate (ear swelling)", "setting": "[3]; 8 mg/kg oral", "result": 81, "unit": "%"}, {"measurement": "Ulcer Occurring Rate", "setting": "Rat Gastric Mucosa Ulcer; 1 mg/kg oral", "result": 0, "unit": "%"}, {"measurement": "Ulcer Occurring Rate", "setting": "Rat Gastric Mucosa Ulcer; 2 mg/kg oral", "result": 30, "unit": "%"}, {"measurement": "Ulcer Occurring Rate", "setting": "Rat Gastric Mucosa Ulcer; 4 mg/kg oral", "result": 80, "unit": "%"}, {"measurement": "Numbers of Occurrence of Body Twist (x ± s)", "setting": "[4]; 2.0 mg/kg oral", "result": "14.78 ± 6.38"}, {"measurement": "Percentage of Body Twist", "setting": "[4]; 2.0 mg/kg oral", "result": 90, "unit": "%"}, {"measurement": "Numbers of Occurrence of Body Twist (x ± s)", "setting": "[4]; 4.0 mg/kg oral", "result": "10.78 ± 8.15"}, {"measurement": "Percentage of Body Twist", "setting": "[4]; 4.0 mg/kg oral", "result": 80, "unit": "%"}, {"measurement": "Numbers of Occurrence of Body Twist (x ± s)", "setting": "[4]; 8.0 mg/kg oral", "result": "2.78 ± 3.49"}, {"measurement": "Percentage of Body Twist", "setting": "[4]; 8.0 mg/kg oral", "result": 60, "unit": "%"}]}
{"molecule": "Cc1cnc(NC(=O)C2=C(O)c3ccccc3S(=O)(=O)N2C)s1", "note": "[Meloxicam, reference compound]", "values": [{"measurement": "Rate of Ear Swelling (x ± s)", "setting": "[3]; 8 mg/kg oral", "result": "0.43 ± 0.36"}, {"measurement": "inhibition rate (ear swelling)", "setting": "[3]; 8 mg/kg oral", "result": 43, "unit": "%"}, {"measurement": "Numbers of Occurrence of Body Twist (x ± s)", "setting": "[4]; 8.0 mg/kg oral", "result": "18.11 ± 14.37"}, {"measurement": "Percentage of Body Twist", "setting": "[4]; 8.0 mg/kg oral", "result": 100, "unit": "%"}]}
